Reference: patent US20150164762A1, “USE OF ETHANOLAMINE PHOSPHATE” (priority 2012, published 2015)
Where “and” joins values, the source holds several entries; their conditions need not be identical. Equal entries are not always repeated.

System: BEAS-2B
Experiment: Comprehensive gene expression analysis with Whole Human Genome DNA microarray after EP treatment
Type: cell-based
Method: Cells of the established normal human airway epithelial cell line BEAS-2B were used in the experiment. These cells were expansively cultured in 10% FBS RPMI-1640, and seeded at a density of 1×10^5/cm^2 on a 24-well plate. After 24 hours 0.1% FBS RPMI-1640 was substituted, and EP was administered to a final concentration of 0 or 1 mM (n=4). After 24 hours, the cells were used as the DNA microarray samples. RNA was extracted using a QIAGEN RNeasy Mini Kit. The DNA microarray test was performed using a Whole Human Genome DNA microarray 4×44K (Agilent), and the necessary labeling reagents and the like for the DNA microarray test were all from Agilent. The DNA microarray test data were analyzed statistically with GeneSpring (Agilent) dedicated analysis software, and gene function analysis (Gene Ontology (GO) analysis) was performed based on differential expression. The purpose of the GO analysis is to determine stochastically the degree to which gene sets with statistically significant differential expression correspond to known functional classification gene sets. […] The p-value is calculated according to the following formula.

[1] = probe A_23_P30122, NM_000586, EP vs control
[2] = probe A_23_P34804, 1 mM EP, 24 h
[3] = probe A_23_P37736, 1 mM EP, 24 h
[4] = probe A_23_P40453, NM_001236, EP vs control
[5] = probe A_23_P45133, NM_27087, EP vs control
[6] = probe A_23_P48740, NM_013989, EP vs control
[7] = probe A_23_P51361, NM_175852, EP vs control
[8] = probe A_23_P53467, 1 mM EP, 24 h
[9] = probe A_23_P54144, 1 mM EP, 24 h
[10] = probe A_23_P55544, 1 mM EP, 24 h
[11] = probe A_23_P56922, 1 mM EP, 24 h
[12] = probe A_23_P56933, 1 mM EP, 24 h
[13] = probe A_23_P58180, NM_207352, EP vs control
[14] = probe A_23_P62959, 1 mM EP, 24 h
[15] = probe A_23_P63898, 1 mM EP, 24 h
[16] = probe A_23_P64129, NM_006410, EP vs control
[17] = probe A_23_P64129, 1 mM EP, 24 h
[18] = probe A_23_P67169, NM_000641, EP vs control
[19] = probe A_23_P68487, NM_001719, EP vs control
[20] = probe A_23_P69030, 1 mM EP, 24 h
[21] = probe A_23_P70398, NM_001025370, EP vs control
[22] = probe A_23_P72096, NM_000575, EP vs control
[23] = probe A_23_P72096, 1 mM EP, 24 h
[24] = probe A_23_P72285, 1 mM EP, 24 h
[25] = probe A_23_P74081, 1 mM EP, 24 h
[26] = probe A_23_P74380, 1 mM EP, 24 h
[27] = probe A_23_P76078, NM_016584, EP vs control
[28] = probe A_23_P81805, NM_001025366, EP vs control
[29] = probe A_23_P82550, 1 mM EP, 24 h
[30] = probe A_23_P87560, 1 mM EP, 24 h
[31] = probe A_23_P88404, 1 mM EP, 24 h
[32] = probe A_23_P88589, 1 mM EP, 24 h
[33] = probe A_23_P89550, 1 mM EP, 24 h
[34] = probe A_23_P89835, 1 mM EP, 24 h
[35] = probe A_23_P90601, NM_182915, EP vs control
[36] = probe A_23_P91504, 1 mM EP, 24 h

SMILES: NCCOP(=O)(O)O [EP, Ethanolamine phosphate]
- BDH1 gene expression, log2 [ratio] (probe A_23_P29754, NM_203314, EP vs control): 0.548
- IL2 gene expression, R* ratio to control [1]: 0.537 times
- IL2 gene expression, log2 [ratio] [1]: −0.898
- NTRK1 expression R: Ratio to control [2]: 0.261 times
- NTRK1 expression log2 [ratio] [2]: −1.936
- TNFRSF17 expression R*: Ratio to control [3]: 2.525 times
- TNFRSF17 expression log2 [ratio] [3]: 1.336
- CBR3 gene expression, R* ratio to control [4]: 1.406 times
- CBR3 gene expression, log2 [ratio] [4]: 0.491
- CSF1 gene expression, R* ratio to control [5]: 0.602 times
- CSF1 gene expression, log2 [ratio] [5]: −0.732
- DIO2 gene expression, R* ratio to control [6]: 1.694 times
- DIO2 gene expression, log2 [ratio] [6]: 0.761
- TXLNA gene expression, R* ratio to control [7]: 0.560 times
- TXLNA gene expression, log2 [ratio] [7]: −0.837
- IKBIP expression R*: Ratio to control [8]: 0.626 times
- IKBIP expression log2 [ratio] [8]: −0.675
- BMP4 expression R*: Ratio to control [9]: 1.820 times
- BMP4 expression log2 [ratio] [9]: 0.864
- CCBE1 expression R*: Ratio to control [10]: 1.755 times
- CCBE1 expression log2 [ratio] [10]: 0.811
- HSPE1 expression R*: Ratio to control [11]: 1.531 times
- HSPE1 expression log2 [ratio] [11]: 0.615
- RTN4 expression R*: Ratio to control [12]: 1.510 times
- RTN4 expression log2 [ratio] [12]: 0.594
- CYP4V2 gene expression, R* ratio to control [13]: 2.178 times
- CYP4V2 gene expression, log2 [ratio] [13]: 1.123
- PHLDA3 expression R: Ratio to control [14]: 0.271 times
- PHLDA3 expression log2 [ratio] [14]: −1.884
- FAS expression R*: Ratio to control [15]: 0.364 times
- FAS expression log2 [ratio] [15]: −1.457
- HTATIP2 gene expression, R* ratio to control [16]: 1.735 times
- HTATIP2 gene expression, log2 [ratio] [16]: 0.795
- HTATIP2 expression R*: Ratio to control [17]: 1.735 times
- HTATIP2 expression log2 [ratio] [17]: 0.795
- IL11 gene expression, R* ratio to control [18]: 0.358 times
- IL11 gene expression, log2 [ratio] [18]: −1.482
- BMP7 gene expression, R* ratio to control [19]: 0.136 times
- BMP7 gene expression, log2 [ratio] [19]: −2.883
- COL8A1 expression R*: Ratio to control [20]: 1.999 times
- COL8A1 expression log2 [ratio] [20]: 0.999
- VEGFA gene expression, R* ratio to control [21]: 0.501 times
- VEGFA gene expression, log2 [ratio] [21]: −0.997
- IL1A gene expression, R* ratio to control [22]: 0.216 times
- IL1A gene expression, log2 [ratio] [22]: −2.211
- IL1A expression R*: Ratio to control [23]: 0.216 times
- IL1A expression log2 [ratio] [23]: −2.211
- YWHAE expression R*: Ratio to control [24]: 1.529 times
- YWHAE expression log2 [ratio] [24]: 0.813 and 0.613
- TP73 expression R*: Ratio to control [25]: 0.557 times
- TP73 expression log2 [ratio] [25]: −0.843
- WARS2 expression R*: Ratio to control [26]: 1.594 times
- WARS2 expression log2 [ratio] [26]: 0.673
- IL23A gene expression, R* ratio to control [27]: 0.508 times
- IL23A gene expression, log2 [ratio] [27]: −0.977
- VEGFA gene expression, R* ratio to control [28]: 0.611 times
- VEGFA gene expression, log2 [ratio] [28]: −0.710
- STK17A expression R*: Ratio to control [29]: 0.623 times
- STK17A expression log2 [ratio] [29]: −0.683
- BTG1 expression R*: Ratio to control [30]: 0.41B
- BTG1 expression log2 [ratio] [30]: −1.265
- TGFB3 expression R*: Ratio to control [31]: 0.590 times
- TGFB3 expression log2 [ratio] [31]: −0.761
- NR2F2 expression R*: Ratio to control [32]: 1.662 times
- NR2F2 expression log2 [ratio] [32]: 0.733
- NLRP1 expression R*: Ratio to control [33]: 0.483 times
- NLRP1 expression log2 [ratio] [33]: −1.048
- MAPRE2 expression R*: Ratio to control [34]: 1.538 times
- MAPRE2 expression log2 [ratio] [34]: 0.621
- STEAP3 gene expression, R* ratio to control [35]: 2.194 times
- STEAP3 gene expression, log2 [ratio] [35]: 1.134
- ITSN1 expression R*: Ratio to control [36]: 3.487 times
- ITSN1 expression log2 [ratio] [36]: 1.802
- CIDEC expression R*: Ratio to control (probe A_23_P92025, 1 mM EP, 24 h): 0.593 times
